The values below come from US20240150321A1, “PYRAZOLYLSULFONAMIDE COMPOUNDS AND THEIR USE IN THERAPY” (HOTSPOT THERAPEUTICS, INC., priority 2022, published 2024).

Like-named read-outs stand apart in the source and are kept apart here. Where only a bound is given, the exact number is not on record here.

Test [1] concerns NF-kB reporter in Jurkat cells. The test can be described thus: NF-kB reporter assay in Jurkat cells stimulated with aCD3/aCD28/PMA. The class given is cell-based. The settings on record: read-out: NF-kB Reporter Assay IC50. The gist of the method:
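Jurkat cells (25,000/well, serum-free RPMI) were pre-incubated 1 h at 37° C with serially diluted compound, then stimulated 4 h with aCD3/aCD28/PMA at final […]. NF-kB reporter activity was read by One-Glo luminescence; IC50 values reported.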
(In general: A reporter such as luciferase makes a cellular process visible.)

The target in another test is Avi-tagged FL MALT-1 (Homo sapiens (Human), UniProt Q9UDY8). Put plainly: MALT-1 Fluorogenic Peptide Cleavage Assay (MALT1 inhibition assay). The class given is biochemical. To be noted: Ac-LRSR-AMC peptide substrate, 30 min pre-incubation, 90 min reaction at room temperature. The gist of the method: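 Full-length Avi-tagged human MALT-1 (40 nM working stock) pre-incubated 30 min at RT with compound in 25 mM HEPES pH 6.89, 660 mM sodium citrate, 1 mM TCEP, […], 0.05% CHAPS, 2% DMSO. Ac-LRSR-AMC added at Km (50 μM working stock) or 10×Km (280 μM working stock); 90 min at RT, AMC fluorescence (ex 342/em 441 nm), IC50 from % inhibition curves.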

Where [2] appears, read: Homo sapiens, Jurkat cells, 1 hr compound pre-incubation, aCD3/aCD28/PMA stimulation 4 hr, One-Glo readout.
[3] abbreviates: Jurkat cells, 1 hr compound pre-incubation, aCD3/aCD28/PMA stimulation 4 hr, One-Glo readout.

Chain of Avi-tagged FL MALT-1 (Q9UDY8 whole entry): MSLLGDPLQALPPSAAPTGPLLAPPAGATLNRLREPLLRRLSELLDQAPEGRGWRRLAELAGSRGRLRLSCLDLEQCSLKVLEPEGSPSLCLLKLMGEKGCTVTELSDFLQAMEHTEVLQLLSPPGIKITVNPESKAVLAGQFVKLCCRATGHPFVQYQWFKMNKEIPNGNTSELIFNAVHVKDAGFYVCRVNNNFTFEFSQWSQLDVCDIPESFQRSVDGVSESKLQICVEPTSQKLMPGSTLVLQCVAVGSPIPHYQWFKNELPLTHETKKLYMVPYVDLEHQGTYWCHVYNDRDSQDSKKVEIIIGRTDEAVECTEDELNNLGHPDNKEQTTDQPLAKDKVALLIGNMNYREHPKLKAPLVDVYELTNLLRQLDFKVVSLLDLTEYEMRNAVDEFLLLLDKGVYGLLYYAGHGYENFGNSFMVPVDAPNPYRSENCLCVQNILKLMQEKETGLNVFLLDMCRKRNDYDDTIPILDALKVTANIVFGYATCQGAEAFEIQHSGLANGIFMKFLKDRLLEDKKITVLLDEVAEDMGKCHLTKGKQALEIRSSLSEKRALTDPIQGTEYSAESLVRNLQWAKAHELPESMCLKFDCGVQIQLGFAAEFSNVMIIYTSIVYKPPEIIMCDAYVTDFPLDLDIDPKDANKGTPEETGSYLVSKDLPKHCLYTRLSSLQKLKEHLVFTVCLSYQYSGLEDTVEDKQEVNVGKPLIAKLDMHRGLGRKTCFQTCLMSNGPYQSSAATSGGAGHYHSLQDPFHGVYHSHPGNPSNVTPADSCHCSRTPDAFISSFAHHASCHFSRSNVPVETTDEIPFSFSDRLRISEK

As for `CCc1ccc2cnn(C)c2c1NS(=O)(=O)c1cn(-c2ccnc(C(F)(F)F)c2)nn1` [Compound I-27, N-(6-Ethyl-1-Methyl-1H-Indazol-7-yl)-1-(2-(Trifluoromethyl) Pyridin-4-yl)-1H-1,2,3-Triazole-4-Sulfonamide], the IC50 – broadly, the midpoint of a concentration-inhibition curve – was > 2500 nM in test [1] (setting [2]) and 400 to 1000 nM against Avi-tagged FL MALT-1.

`COc1ccc2cnn(C)c2c1N(C)S(=O)(=O)c1cnn(-c2ccnc(C(F)(F)F)c2)c1` [Compound I-25, N-(6-Methoxy-1-Methyl-1H-Indazol-7-yl)-N-methyl-1-(2-(Trifluoromethyl)Pyridin-4-yl)-1H-Pyrazole-4-Sulfonamide]: the IC50 in test [1] (setting [2]) is < 400 nM; against Avi-tagged FL MALT-1, ≤ 400 nM.

For `COc1ccc2cnn(C)c2c1NS(=O)(=O)c1cnn(-c2cc(C3(OC)CC(C)C3)ccn2)c1` (single isomer, unassigned) [Compound I-365, N-(6-methoxy-1-methyl-1H-indazol-7-yl)-1-(4-(1-methoxy-3-methylcyclobutyl)pyridin-2-yl)-1H-pyrazole-4-sulfonamide], the figures for the half-maximal inhibitory concentration (IC50) (in test [1] (setting [3]); on Avi-tagged FL MALT-1) were < 400 nM and ≤ 400 nM, respectively.

As for `CCc1ccc2[nH]nc(C)c2c1NS(=O)(=O)c1cnn(-c2ccnc(C(F)(F)F)c2)c1` [Compound I-39, N-(5-Ethyl-3-Methyl-1H-Indazol-4-yl)-1-(2-(Trifluoromethyl) Pyridin-4-yl)-1H-Pyrazole-4-Sulfonamide], the IC50 in test [1] (setting [2]) was < 400 nM; against Avi-tagged FL MALT-1, ≤ 400 nM.

Consider `Cn1ncc2cccc(NS(=O)(=O)c3cnn(-c4cc(N5C(=O)OCC5(C)C)ccn4)c3)c21` [Compound I-321], for which the IC50 in test [1] (setting [2]) is < 400 nM; against Avi-tagged FL MALT-1, > 2500 nM.

For the compound `O=S(=O)(c1cnn(-c2cc(C(F)(F)F)ccn2)c1)N1CCCc2ccc3cn[nH]c3c21` [Compound I-393, 9-((1-(4-(trifluoromethyl)pyridin-2-yl)-1H-pyrazol-4-yl)sulfonyl)-6,7,8,9-tetrahydro-1H-pyrazolo[4,3-h]quinoline], the 50% inhibitory concentration (IC50) (in test [1] (setting [2]); against Avi-tagged FL MALT-1) was > 2500 nM each time.

Turning to `CC1CC(F)(c2ccnc(-n3cc(S(=O)(=O)Nc4cccc5cnn(C)c45)cn3)c2)C1` (stereo not shown) [Compound I-395, 1-(4-(1-fluoro-3-methylcyclobutyl)pyridin-2-yl)-N-(1-methyl-1H-indazol-7-yl)-1H-pyrazole-4-sulfonamide], the half-maximal inhibitory concentration (IC50) in test [1] (setting [3]) is < 400 nM; at Avi-tagged FL MALT-1, > 2500 nM.

With `O=S(=O)(c1cnn(-c2cc(C(F)(F)F)ccn2)c1)N1CCCCn2ncc3cccc1c32` [Compound I-396, 1-((1-(4-(trifluoromethyl)pyridin-2-yl)-1H-pyrazol-4-yl)sulfonyl)-2,3,4,5-tetrahydro-1H-[1,4]diazocino[3,2,1-hi]indazole], the concentration for half-maximal inhibition (IC50) is > 2500 nM in test [1] (Homo sapiens, Jurkat) and > 2500 nM at Avi-tagged FL MALT-1.

`C=Cn1cc2cccc(NS(=O)(=O)c3cnn(-c4cc(C(F)(F)F)ccn4)c3)c2n1` [Compound I-357, 1-(4-(trifluoromethyl)pyridin-2-yl)-N-(2-vinyl-2H-indazol-7-yl)-1H-pyrazole-4-sulfonamide]: the half-maximal inhibitory concentration (IC50) (in test [1] (setting [2]); against Avi-tagged FL MALT-1) was > 2500 nM throughout.

Regarding `CCc1ccc2cnn(C)c2c1NS(=O)(=O)c1cnn(-c2cc(OC(F)(F)F)ccn2)c1` [Compound I-43, N-(6-Ethyl-1-Methyl-1H-Indazol-7-yl)-1-(4-(Trifluoromethoxy) Pyridin-2-yl)-1H-Pyrazole-4-Sulfonamide], the 50% inhibitory concentration (IC50) (in test [1] (setting [2]); on Avi-tagged FL MALT-1) was > 2500 nM each time.

Turning to `Cn1ncc2cccc(NS(=O)(=O)c3cnn(-c4ccnc(C5CC5)c4)c3)c21` [Compound I-75, 1-(2-Cyclopropylpyridin-4-yl)-N-(1-Methyl-1H-Indazol-7-yl)-1H-Pyrazole-4-Sulfonamide], the IC50 in test [1] (setting [2]) is 400 to 1000 nM; against Avi-tagged FL MALT-1, > 2500 nM.

Take `COc1ncc2cnn(C)c2c1NS(=O)(=O)c1cnn(-c2cc(C(F)(F)F)n(C)n2)c1` [Compound I-286, N-(6-methoxy-1-methyl-1H-pyrazolo[4,3-c]pyridin-7-yl)-1′-methyl-5′-(trifluoromethyl)-1′H-[1,3′-bipyrazole]-4-sulfonamide]: the IC50 in test [1] (setting [2]) is 400 to 1000 nM; on Avi-tagged FL MALT-1 it was ≤ 400 nM.

As to `[2H]C([2H])([2H])Oc1ccc2cnn(C([2H])([2H])[2H])c2c1NS(=O)(=O)c1cnn(-c2cc(C(F)(F)F)ccn2)c1` [Compound I-476, N-(6-(methoxy-d3)-1-(methyl-d3)-1H-indazol-7-yl)-1-(4-(trifluoromethyl)pyridin-2-yl)-1H-pyrazole-4-sulfonamide], the IC50 in test [1] (setting [2]) is < 400 nM; against Avi-tagged FL MALT-1 it was ≤ 400 nM.

In the case of `Cn1ncc2cccc(NS(=O)(=O)c3cnn(-c4cc(C5=CCOC5)ccn4)c3)c21` [Compound I-109, 1-(4-(2,5-Dihydrofuran-3-yl)Pyridin-2-yl)-N-(1-Methyl-1H-Indazol-7-yl)-1H-Pyrazole-4-Sulfonamide], the half-inhibitory concentration (IC50) in test [1] (setting [2]) is < 400 nM; on Avi-tagged FL MALT-1 it was > 2500 nM.

With `COc1ccc2cnn(C)c2c1NS(=O)(=O)c1cnn(-c2cc(CO)ccn2)c1` [Compound I-323, 1-[4-(hydroxymethyl)pyridin-2-yl]-N-(6-methoxy-1-methylindazol-7-yl)pyrazole-4-sulfonamide], the concentration for half-maximal inhibition (IC50) in test [1] (setting [2]) was < 400 nM; at Avi-tagged FL MALT-1 it was 400 to 1000 nM.

`COc1ccc2cnn(C)c2c1NS(=O)(=O)c1cnn(-c2cc(C3(F)CC(F)C3)ccn2)c1` (single isomer, unassigned) [Compound I-378, 1-(4-(1,3-difluorocyclobutyl)pyridin-2-yl)-N-(6-methoxy-1-methyl-1H-indazol-7-yl)-1H-pyrazole-4-sulfonamide]: the IC50 in test [1] (setting [3]) is < 400 nM; against Avi-tagged FL MALT-1, ≤ 400 nM.

As for `COc1ccc2cnn(C)c2c1NS(=O)(=O)c1cnn(-c2cc(C3(OC)CC(C)(C)C3)ccn2)c1` [Compound I-480], the 50% inhibitory concentration (IC50) in test [1] (setting [2]) was < 400 nM; against Avi-tagged FL MALT-1, > 2500 nM.

Regarding `COC1(c2ccnc(-n3cc(S(=O)(=O)Nc4cccc5[nH]nc(C)c45)cn3)c2)COC1` [Compound I-244, 1-(4-(3-methoxyoxetan-3-yl)pyridin-2-yl)-N-(3-methyl-1H-indazol-4-yl)-1H-pyrazole-4-sulfonamide], the results for the IC50 (in test [1] (setting [2]); against Avi-tagged FL MALT-1) were < 400 nM and > 2500 nM, respectively.

With `COc1ccc2cnn(C)c2c1NS(=O)(=O)c1cnn(-c2cc(C3(O)CC(C)(C)C3)ccn2)c1` [Compound I-479], the 50% inhibitory concentration (IC50) in test [1] (setting [2]) is < 400 nM; against Avi-tagged FL MALT-1 it was > 2500 nM.

Consider `CN1CCn2ncc(-n3cc(S(=O)(=O)Nc4cccc5cnn(C)c45)cn3)c2C1` [Compound I-466, 1-{5-methyl-4H,6H,7H-pyrazolo[1,5-a]pyrazin-3-yl}-N-(1-methylindazol-7-yl)pyrazole-4-sulfonamide], for which the concentration for half-maximal inhibition (IC50) (in test [1] (setting [2]); against Avi-tagged FL MALT-1) was > 2500 nM in each case.

`COc1ccc2cnn(C)c2c1NS(=O)(=O)c1cnn(-c2cc(Cl)ccn2)c1` [Compound I-54]: the IC50 in test [1] (setting [2]) was < 400 nM; against Avi-tagged FL MALT-1, ≤ 400 nM.

In the case of `CCc1ccc2c(c(C)nn2C)c1NS(=O)(=O)c1cnn(-c2ccnc(C(F)(F)F)c2)c1` [Compound I-40, N-(5-ethyl-1,3-dimethyl-1H-Indazol-4-yl)-1-(2-(Trifluoromethyl)Pyridin-4-yl)-1H-Pyrazole-4-Sulfonamide], the figures for the half-inhibitory concentration (IC50) (in test [1] (setting [2]); at Avi-tagged FL MALT-1) were 400 to 1000 nM and ≤ 400 nM, respectively.

On to `CC(=O)N1CC(F)(c2ccnc(-n3cc(S(=O)(=O)Nc4cccc5cnn(C)c45)cn3)c2)C1` [Compound I-253, 1-(4-(1-acetyl-3-fluoroazetidin-3-yl)pyridin-2-yl)-N-(1-methyl-1H-indazol-7-yl)-1H-pyrazole-4-sulfonamide], for which the IC50 was 400 to 1000 nM in test [1] (setting [2]) and > 2500 nM against Avi-tagged FL MALT-1.

As to `COC1(c2ccnc(-n3cc(S(=O)(=O)Nc4cccc5cnn(C)c45)cn3)c2)CC(C)C1` (stereo not shown) [Compound I-363, 1-(4-(1-methoxy-3-methylcyclobutyl)pyridin-2-yl)-N-(1-methyl-1H-indazol-7-yl)-1H-pyrazole-4-sulfonamide], the 50% inhibitory concentration (IC50) in test [1] (setting [3]) was < 400 nM; on Avi-tagged FL MALT-1, > 2500 nM.

`COc1ccc2cnn(C)c2c1NS(=O)(=O)c1cnn(-c2cc(C(C)(C)O)ccn2)c1` [Compound I-135, 1-(4-(2-hydroxypropan-2-yl)pyridin-2-yl)-N-(6-methoxy-1-methyl-1H-indazol-7-yl)-1H-pyrazole-4-sulfonamide]: the half-inhibitory concentration (IC50) in test [1] (setting [2]) was < 400 nM; against Avi-tagged FL MALT-1, 400 to 1000 nM.

Take `CCc1ccc2cnn(C)c2c1NS(=O)(=O)c1cnn(-c2ccnc(OC(F)(F)F)c2)c1` [Compound I-61, N-(6-Ethyl-1-Methyl-1H-Indazol-7-yl)-1-(2-(Trifluoromethoxy) Pyridin-4-yl)-1H-Pyrazole-4-Sulfonamide]: the IC50 (in test [1] (setting [2]); at Avi-tagged FL MALT-1) was 1000 to 2500 nM each time.

On to `COc1ncc2cnn(C)c2c1NS(=O)(=O)c1cnn(-c2cc(N3CC[C@@H](F)C3)ccn2)c1` [Compound I-427], for which the figures for the IC50 (in test [1] (setting [2]); against Avi-tagged FL MALT-1) were 400 to 1000 nM and > 2500 nM, respectively.

Regarding `Cc1n[nH]c2cccc(NS(=O)(=O)c3cnn(-c4cc(C(C)(C)O)ccn4)c3)c12` [Compound I-245], the half-maximal inhibitory concentration (IC50) in test [1] (setting [3]) was < 400 nM; against Avi-tagged FL MALT-1, > 2500 nM.

On to `COc1ccc2cnn(C)c2c1NS(=O)(=O)c1cnn(-c2cc([C@@H](C)N3CCCCC3)ccn2)c1` [Compound I-463], for which the IC50 was 400 to 1000 nM in test [1] (setting [2]) and > 2500 nM against Avi-tagged FL MALT-1.
